{
  "source": "patent US20110263657A1",
  "about": "“DIARYL UREAS FOR TREATING HEART FAILURE” (BAYER SCHERING PHARMA AKTIENGESELLSCHAFT, priority 2008, published 2011)",
  "test_system": "mouse models of pressure-induced heart failure",
  "assay": "Pressure-induced heart failure (TAC) in mice, organ weights and hemodynamic measurements",
  "type": "in vivo",
  "conditions": "banded (TAC) mice, 50 mg/kg/d po for 4 weeks",
  "procedure": "The effects of the compound and drug combinations according to the invention are tested in vivo in mouse models of pressure-induced heart failure.\nMethods: Pressure-Induced Heart Failure (TAC)\nSurgery: 8 weeks old mice were pre-anesthetized for 2-3 min in an isofluran flooded box and then intubated (tubus of own fabrication).\nMice were placed on the right side on a heating panel and the tubus was connected to a ventilation pump (Mini Vent Type 845, Hugo Sachs Electronic) which allowed the further ventilation of mice with isofluran (1.5%).\nMice were prepared for the surgery: eyes moistened with Bepanthen® salve (pharmaceutical ointment containing dexpanthenol), operation field shaved and disinfected, mice fixated with tape in a right lateral position.\nThe skin cut was placed ca 2 mm behind the left elbow and was 5 mm length and vertical. Pectoral muscles were separated until ribs. A wound-spreader was placed between the 2nd and the 3rd rib and thymus was visualized. After pushing by side the thymus V. cava, A pulmonalis and Aorta with both carotid branching were viewed. With help from a curved polished vessel catheter a ligation thread was placed around the aorta between both carotid branching. The aorta was constricted to a diameter of 0.6 mm with help from a splint.\nBy sham operated mice the same procedure was effectuated but the aorta was not constricted.\nBefore they woke up, mice were given 5 mg/5 ml/kg sc Rimadyl® (Pfizer, Carprofen), wound was cleaned with […] and coated with antibiotic salve (Neomycin® salve) and Bepanthen® salve was removed from the eyes.\nAfter awaking from anesthesia the tubus was taken off and mice were placed in their cages heated with heating panels for at least half an hour.\nMice were divided into 3 groups (n=10-12): • sham operated with vehicle treatment • placebo with vehicle treatment • Sorafenib: 50 mg/kg/d in vehicle\nSubstances were dissolved in 10% Ethanol, 40% Solutol and 50% water.\nApplication volumes: 10 ml/kg/d po\nTreatment: begin 1 day after surgery for 4 weeks\nAfter 4 weeks of treatment hemodynamic measurement were performed and mice were sacrificed.\nHemodynamic measurements: Mice were pre-anesthetized for 2-3 min in an isofluran flooded box, followed by fixation in an anesthesia mask (continuous flow of 1.5% isofluran by spontaneous breathing of the mouse). Mice were placed on the back on a heating panel.\nThroats were shaved and the skin incised on the median line. The right A. carotis was prepared and ligated cranial. A tip-catheter (Millar Micro-Tip-Transducer, 1.0 oder 1.4 French, Firma HSE) was introduced in the right A. carotis and pushed into the left ventricle and fixated. There, pressure of the left ventricle was registered for a few minutes (after reaching a steady state) over the catheter and analyzed by the Millar Chart 5 software. After the measurements blood samples were taken. Finally organs (heart, lung, liver, right kidney) were collected.",
  "data": [
    {"smiles": "CNC(=O)c1cc(Oc2ccc(NC(=O)Nc3ccc(Cl)c(C(F)(F)F)c3)cc2)ccn1", "note": "[Sorafenib, 4{4-[3-(4-chloro-3-trifluoromethylphenyl)-ureido]-phenoxy}-pyridine-2-carboxylic acid methyl amide]", "values": [
      {"measurement": "Relaxation constant tau, increment", "result": "inhibited"},
      {"measurement": "Heart weight/body weight ratio (hypertrophy)", "setting": "compared to sham operated mice", "result": "completely inhibited"},
      {"measurement": "Left ventricular weight/body weight ratio (hypertrophy)", "setting": "compared to sham operated mice", "result": "completely inhibited"},
      {"measurement": "Left ventricular end diastolic pressure, augmentation compared to sham operated mice", "setting": "p<0.05 compared to placebo", "result": 7, "unit": "%"},
      {"measurement": "Left ventricular systolic pressure, augmentation compared to sham operated mice", "setting": "p<0.05 compared to placebo", "result": 8, "unit": "%"}
    ]}
  ]
}
